Our source for the viability values is paper PMC12040169 (PLOS Biology, 2025).

The data set in a line: in vitro. The following applies: human, hela cells, % viability.
What is called viability is a read-out of living cells in per cent, often relative to untreated cells. For the compound `COc1ccc(C(=O)N2CC[C@H]3NC(=O)N(Cc4ccccc4)C(=O)[C@H]32)cc1` [CBK289293], the viability at 28.5 h, 10 µM was determined as 94.1%.
Consider `CC(C)(C)c1ccc(C(=O)N2CC[C@H]3NC(=O)N(Cc4ccccc4)C(=O)[C@H]32)cc1` [CBK289294], for which the viability at 28.5 h, 10 µM stood at 86%.
As for `COc1ccc(-c2c[nH]c([C@@H]3COCCN3Cc3ccccc3O)n2)cc1` [CBK289296], the figure is 85.1%; as for `CS(=O)(=O)c1ccc(-c2c[nH]c([C@@H]3COCCN3C3CCCCC3)n2)cc1` [CBK289299], 102%; as for `CC(C)N1CCOC[C@H]1c1nc(-c2ccc(S(C)(=O)=O)cc2)c[nH]1` [CBK289301], 91.2%.
As for `COc1ccc(-c2c[nH]c([C@@H]3COCCN3Cc3ccc(C(=O)O)cc3)n2)cc1` [CBK289305], the figure is 84.1%; as for `CS(=O)(=O)c1ccc(-c2c[nH]c([C@@H]3COCCN3Cc3ccc(C(=O)O)cc3)n2)cc1` [CBK289306], 97.3%; as for `CN(C)Cc1cc(C[C@@H]2C[C@H](NS(=O)(=O)c3ccccc3)C2(C)C)no1` [CBK289307], 112%.
To `Cc1ccc(-c2c[nH]c([C@@H]3COCCN3Cc3c[nH]c4ccccc34)n2)cc1` [CBK289308] belongs 106%; to `CN(C)Cc1cc(C[C@@H]2C[C@H](NCc3ccccn3)C2(C)C)no1` [CBK289313], 92.3%; to `Cc1ccc(-c2c[nH]c([C@@H]3COCCN3Cc3c[nH]cn3)n2)cc1` [CBK289315], 94.8%.
For `O=C(O)c1ccc(CN2CCOC[C@H]2c2nc(-c3ccc(C(F)(F)F)cc3)c[nH]2)cc1` [CBK289317], the viability at 28.5 h, 10 µM amounted to 115%.
As for `O=C(Nc1ccc([C@@H](O)[C@H]2COCC(=O)N2Cc2cccnc2)cc1)c1ccccc1` [CBK289319], the figure is 111%.
In the case of `CS(=O)(=O)c1ccc(-c2c[nH]c([C@@H]3COCCN3Cc3c[nH]c4ccccc34)n2)cc1` [CBK289321], the viability at 28.5 h, 10 µM is 92%.
To `Cn1cc(CN2CCOC[C@H]2c2nc(C(C)(C)C)c[nH]2)c2ccccc21` [CBK289322] belongs 118%.
Turning to `COc1ccc(C(=O)N2CC[C@H]3NC(=O)N(c4ccc(F)cc4)C(=O)[C@H]32)cc1` [CBK289325], the viability at 28.5 h, 10 µM was 86.9%.
To `O=C1N[C@@H]2CCN(S(=O)(=O)c3cccs3)[C@@H]2C(=O)N1c1ccc(F)cc1` [CBK289326] belongs 89.1%; to `O=C(O)CC1(CC(=O)N2CC[C@H]3NC(=O)N(c4ccc(F)cc4)C(=O)[C@H]32)CCCC1` [CBK289327], 97.7%; to `COc1ccc(-c2ccc3c(c2)C(=O)N2CC[C@H](NC(=O)C4CCCC4)[C@H]2C(=O)N3)cc1` [CBK289330], 108%.
To `COc1ccc(-c2ccc3c(c2)C(=O)N2CC[C@H](NC(=O)CCC(=O)O)[C@H]2C(=O)N3)cc1` [CBK289331] belongs 84.4%.
For the compound `O=C(N[C@H]1CCN2C(=O)c3ccccc3NC(=O)[C@H]12)c1cccc(F)c1` [CBK289332], the viability at 28.5 h, 10 µM amounted to 89.3%.
As for `CC(C)NC(=O)N[C@H]1CCN2C(=O)c3cc(-c4ccccc4F)ccc3NC(=O)[C@H]12` [CBK289335], the figure is 84.2%.
As for `O=C1Nc2ccc(-c3ccsc3)cc2C(=O)N2CC[C@H](NC(=O)N3CCOCC3)[C@@H]12` [CBK289338], the figure is 109%.
As for `CC(C)NC(=O)N[C@H]1CCN2C(=O)c3ccc(Cl)cc3NC(=O)[C@H]12` [CBK289343], the figure is 99.5%; as for `N[C@H]1CCN2C(=O)c3cc(-c4ccc(F)cc4F)ccc3NC(=O)[C@H]12` [CBK289345], 94.4%.
For `Cc1cccc(-c2ccc3c(c2)C(=O)N2CC[C@H](NC(=O)N4CCOCC4)[C@H]2C(=O)N3)c1C` [CBK289347], the viability at 28.5 h, 10 µM came to 88.1%.
Take `CC(C)NC(=O)N[C@H]1CCN2C(=O)c3cc(-c4ccccc4)ccc3NC(=O)[C@H]12` [CBK289351]: the viability at 28.5 h, 10 µM turned out to be 84.1%.
To `O=C(N[C@H]1C[C@H]2C(=O)Nc3ccccc3C(=O)N2C1)c1cccnc1` [CBK289356] belongs 110%.
As for `COCC(=O)N[C@H]1C[C@H]2C(=O)Nc3ccc(Br)cc3C(=O)N2C1` [CBK289357], the figure is 97.6%.
As for `COCC(=O)N[C@H]1C[C@H]2C(=O)Nc3ccc(-c4cccs4)cc3C(=O)N2C1` [CBK289358], the figure is 110%.
`COc1ccc(C(=O)N[C@H]2C[C@H]3C(=O)Nc4ccc(-c5ccsc5)cc4C(=O)N3C2)cc1` [CBK289362]: the viability at 28.5 h, 10 µM stood at 91.7%.
As for `CS(=O)(=O)N[C@H]1C[C@H]2C(=O)Nc3cc(Cl)ccc3C(=O)N2C1` [CBK289363], the figure is 89%; as for `Cn1cccc1C(=O)N[C@H]1C[C@H]2C(=O)Nc3cc(Cl)ccc3C(=O)N2C1` [CBK289364], 86.7%.
To `C=CCNC(=O)N[C@H]1C[C@H]2C(=O)Nc3cc(Cl)ccc3C(=O)N2C1` [CBK289365] belongs 92.5%; to `Cn1cccc1C(=O)N[C@H]1C[C@H]2C(=O)Nc3ccc(/C=C/c4ccccc4)cc3C(=O)N2C1` [CBK289367], 86.7%.
To `CS(=O)(=O)N[C@H]1C[C@H]2C(=O)Nc3ccc(-c4ccc(F)cc4F)cc3C(=O)N2C1` [CBK289368] belongs 85.3%; to `CS(=O)(=O)N1CC[C@H](c2nc3cc(Cl)ccc3o2)C1` [CBK289370], 86%; to `CC(=O)Nc1ccc(S(=O)(=O)N2CC[C@H](c3nc4ccccc4o3)C2)cc1` [CBK289373], 103%.
With `CC(=O)N1CC[C@H](c2nc3ccc(C#N)cc3[nH]2)C1` [CBK289378], the viability at 28.5 h, 10 µM was 108%.
As for `CCS(=O)(=O)c1ccc2oc([C@H]3CCN(C(=O)C4CCCCC4)C3)nc2c1` [CBK289381], the figure is 104%; as for `c1ccc(CN2CC[C@H](c3nc4ncccc4[nH]3)C2)cc1` [CBK289383], 106%; as for `O=C(O)c1ccc(CN2CC[C@H](c3nc4ccccc4o3)C2)cc1` [CBK289387], 108%.
To `c1ccc2oc([C@H]3CCN(C4CCOCC4)C3)nc2c1` [CBK289388] belongs 92.3%; to `Cc1nnc([C@H]2CCN(Cc3ccccc3)C2)o1` [CBK289390], 114%; to `Cc1nnc([C@H]2CCN(Cc3cccs3)C2)o1` [CBK289393], 103%.
To `c1cncc(-c2nnc([C@H]3CCNC3)o2)c1` [CBK289396] belongs 103%.
On to `Cc1ccc(-c2nnc([C@H]3CCN(Cc4ccc(CO)o4)C3)o2)cc1` [CBK289399], for which the viability at 28.5 h, 10 µM came to 90%.
As for `CCCc1nnc([C@H]2CCN(Cc3ccc(S(C)(=O)=O)cc3)C2)o1` [CBK289402], the figure is 100%; as for `CN1CCC(N2CC[C@H](c3nnc(-c4cncn4C)o3)C2)CC1` [CBK289403], 117%.
On to `CN(C)c1ccc(-c2nnc([C@H]3CCN(C(=O)CCC(=O)O)C3)o2)cc1` [CBK289408], for which the viability at 28.5 h, 10 µM is 119%.
On to `COc1ccc(-c2nnc([C@H]3CCN(C(=O)C4CC4)C3)o2)cc1` [CBK289409], for which the viability at 28.5 h, 10 µM amounted to 89.6%.
To `COCC(=O)N1CC[C@H](c2nnc(-c3ccncc3)o2)C1` [CBK289413] belongs 88%; to `CN(C)c1ccc(CN2CC[C@H](c3nc4cccc(C(N)=O)c4[nH]3)C2)cc1` [CBK289414], 105%.
To `CC(C)C[C@@H]1N[C@H](C(=O)NCCN(C)C)Cc2c[nH]c3cccc1c23` [CBK289417] belongs 92.9%; to `CC(C)C[C@@H]1N[C@H](C(=O)NCc2cccnc2)Cc2c[nH]c3cccc1c23` [CBK289418], 90%; to `COCCN1CCN(C(=O)[C@@H]2Cc3c[nH]c4cccc(c34)[C@H](CC(C)C)N2)CC1` [CBK289419], 84.5%.
For the compound `Cc1cc(CNC(=O)[C@@H]2Cc3cn(C)c4cccc(c34)[C@H](CC(C)C)N2)no1` [CBK289420], the viability at 28.5 h, 10 µM stood at 104%.
As to `CC(C)C[C@@H]1N[C@H](C(=O)N2CCN(c3ncccn3)CC2)Cc2cn(C)c3cccc1c23` [CBK289421], the viability at 28.5 h, 10 µM was determined as 84.2%.
As for `C#CCNC(=O)[C@@H]1Cc2cn(Cc3nccn3C)c3cccc(c23)[C@H](CC(C)C)N1` [CBK289424], the viability at 28.5 h, 10 µM was 108%.
To `C#CCNC(=O)[C@@H]1Cc2cn(Cc3c(C)noc3C)c3cccc(c23)[C@H](CC(C)C)N1` [CBK289425] belongs 93.7%.
As for `COc1ccc(-c2cc(CC3(NC(C)=O)COC3)no2)cc1` [CBK289428], the figure is 94.5%.
For `COCC(=O)Nc1nc2c(s1)C[C@]1(C)CC[C@@H]3[C@H](OC(=O)[C@H]3C)[C@H]1[C@@H]2C` [CBK289430], the viability at 28.5 h, 10 µM was found to be 105%.
As for `C[C@@H]1C(=O)O[C@H]2[C@H]1CC[C@@]1(C)Cc3sc(NC(=O)CN(C)C)nc3[C@@H](C)[C@H]21` [CBK289431], the figure is 87.3%.
As for `Cc1cc(OCC(=O)O)c(C)c2c1CC[C@@H]([C@H](C)C(=O)N1CCC(O)CC1)C2` [CBK289433], the figure is 78.7%.
To `CC(=O)N[C@H]1CC[C@]2(C)CCC([C@H](C)C(=O)NCCN3CCOCC3)[C@H](O)[C@H]2[C@@H]1C` (stereo partly drawn) [CBK289434] belongs 114%; to `CC(=O)N[C@H]1CC[C@]2(C)CCC([C@H](C)C(=O)N(C)Cc3ccccc3)[C@H](O)[C@H]2[C@@H]1C` (stereo partly drawn) [CBK289435], 110%; to `CC(=O)N[C@H]1CC[C@]2(C)CCC([C@H](C)C(=O)NC3CC3)[C@H](O)[C@H]2[C@@H]1C` (stereo partly drawn) [CBK289437], 93.9%.
For `CC(=O)N[C@H]1CC[C@]2(C)CCC([C@H](C)C(=O)NCCN3CCCC3)[C@H](O)[C@H]2[C@@H]1C` (stereo partly drawn) [CBK289440], the viability at 28.5 h, 10 µM was determined as 86.5%.
As for `C[C@H]1[C@@H]2[C@@H](O)C([C@H](C)C(=O)NC3CC3)CC[C@@]2(C)CC[C@@H]1NC(=O)C1CC1` (stereo partly drawn) [CBK289442], the figure is 87.1%.
